{"source": "patent US20060270629A1", "about": "“Methanocarba cycloalkyl nucleoside analogues” (Govt of the U.S.A., represented by the Secretary, Dept of …, priority 2000, published 2006)", "key": {"[1]": {"biological_target": "T1, A3 receptors (Rattus norvegicus, UniProt P28647)", "T1 sequence (P28647 1-320)": "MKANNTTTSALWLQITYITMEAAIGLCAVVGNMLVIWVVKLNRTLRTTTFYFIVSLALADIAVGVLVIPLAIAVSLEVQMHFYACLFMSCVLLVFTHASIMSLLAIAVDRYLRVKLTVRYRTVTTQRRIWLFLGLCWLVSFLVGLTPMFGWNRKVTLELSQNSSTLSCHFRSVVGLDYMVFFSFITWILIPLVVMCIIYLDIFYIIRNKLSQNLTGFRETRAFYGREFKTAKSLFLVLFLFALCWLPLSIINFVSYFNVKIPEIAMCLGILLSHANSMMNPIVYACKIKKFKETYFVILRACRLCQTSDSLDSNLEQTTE", "test": "Radioligand binding at rat A3 adenosine receptors, values marked (r)", "conditions": "read-out: K1 (nM), A3 (r)", "method": "(§1) Bound and free ligands were separated by rapid filtration of the reaction mixture through Whatman GF/B glass filters. The filters were immediately washed with two 5 ml-portions of ice-cold 50 mM Tris.HCl buffer (pH 7.4). The radioactivity bound to the filters was determined in a Beckman gamma counter."}, "[2]": {"biological_target": "T2, cloned hA1AR (Homo sapiens, UniProt P30542)", "T2 sequence (P30542 1-326)": "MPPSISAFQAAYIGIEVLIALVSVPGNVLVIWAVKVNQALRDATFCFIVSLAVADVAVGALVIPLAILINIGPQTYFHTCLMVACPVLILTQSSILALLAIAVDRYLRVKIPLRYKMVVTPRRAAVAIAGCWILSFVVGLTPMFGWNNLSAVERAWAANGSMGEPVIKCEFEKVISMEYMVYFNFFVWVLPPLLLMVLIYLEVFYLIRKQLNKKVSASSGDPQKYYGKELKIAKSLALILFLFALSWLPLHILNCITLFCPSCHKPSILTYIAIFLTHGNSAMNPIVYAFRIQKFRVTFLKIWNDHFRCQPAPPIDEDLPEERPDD", "test": "Stimulation of [35S]GTPγS binding, CHO cell membranes expressing cloned hA1AR", "method": "(§2) CHO cells stably transfected with either human A1 or A3 receptors (gift of Dr. Gary Stiles and Dr. Mark Olah, Duke University Medical Center) were cultured as monolayers in medium supplemented with 10% fetal bovine serum. […] The final pellets were resuspended in 50 mM Tris.HCl buffer, pH 7.4, containing 10 mM MgCl2 and 0.1 mM EDTA and stored at −70° C.\n(§3) After transferring the filters into a vial containing 3 ml of scintillation cocktail, the radioactivity was determined in a scintillation counter.\n(§4) Binding of [^35S]GTP-γ-S was studied in membranes prepared from CHO cells stably expressing human A1 or A3 receptors (Table 2)."}, "[3]": {"biological_target": "rat A2A receptors (Rattus norvegicus, UniProt P30543)", "sequence (P30543 whole entry)": "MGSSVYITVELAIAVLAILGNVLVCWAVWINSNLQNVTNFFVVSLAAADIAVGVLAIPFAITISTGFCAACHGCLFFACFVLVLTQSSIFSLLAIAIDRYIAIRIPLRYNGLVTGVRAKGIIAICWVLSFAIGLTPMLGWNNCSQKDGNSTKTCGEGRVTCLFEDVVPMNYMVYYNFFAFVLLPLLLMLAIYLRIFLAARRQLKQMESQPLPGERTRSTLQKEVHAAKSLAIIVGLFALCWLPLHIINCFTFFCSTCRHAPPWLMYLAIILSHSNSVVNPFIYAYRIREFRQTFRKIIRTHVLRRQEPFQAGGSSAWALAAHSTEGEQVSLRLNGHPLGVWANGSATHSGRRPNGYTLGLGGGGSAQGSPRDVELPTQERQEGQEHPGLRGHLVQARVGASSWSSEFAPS", "test": "Radioligand binding at rat A2A adenosine receptors", "conditions": "read-out: K1 (nM), rA2A", "method": "as §1"}, "[4]": {"biological_target": "T3, human A3 receptors (Homo sapiens, UniProt P0DMS8)", "T3 sequence (P0DMS8 1-318)": "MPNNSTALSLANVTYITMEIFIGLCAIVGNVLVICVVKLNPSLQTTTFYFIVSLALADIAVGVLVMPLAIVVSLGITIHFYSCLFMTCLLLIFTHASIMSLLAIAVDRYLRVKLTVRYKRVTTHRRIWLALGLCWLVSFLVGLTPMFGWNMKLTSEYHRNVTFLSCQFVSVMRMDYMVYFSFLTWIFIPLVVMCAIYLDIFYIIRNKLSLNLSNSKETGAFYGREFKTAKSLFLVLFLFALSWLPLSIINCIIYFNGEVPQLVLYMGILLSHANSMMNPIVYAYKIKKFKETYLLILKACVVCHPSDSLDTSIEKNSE", "test": "A3 adenosine receptor binding using [125I]AB-MECA, transfected CHO cell membranes", "conditions": "for Ki: human A3 receptors, read-out: K1 (nM), hA3; for A1/A3: ratio of Ki at rat A1 to Ki at A3 (human, or rat where marked (r))", "method": "The final pellets were resuspended in 50 mM Tris.HCl buffer, pH 7.4, containing 10 mM MgCl2 and 0.1 mM EDTA and stored at -70° C. […] The total volume of the reaction mixture was 125 μl. Bound and free ligands were separated by rapid filtration of the reaction mixture through Whatman GF/B glass filters. The filters were immediately washed with two 5 ml-portions of ice-cold 50 mM Tris.HCl buffer (pH 7.4). The radioactivity bound to the filters was determined in a Beckman gamma counter."}, "[5]": {"biological_target": "T4, rA1AR (Rattus norvegicus, UniProt P25099)", "T4 construct": "in rat cerebral cortical membranes containing the A1AR; from tissue; host or cells: rat cerebral cortical membranes", "T4 sequence (P25099 1-326)": "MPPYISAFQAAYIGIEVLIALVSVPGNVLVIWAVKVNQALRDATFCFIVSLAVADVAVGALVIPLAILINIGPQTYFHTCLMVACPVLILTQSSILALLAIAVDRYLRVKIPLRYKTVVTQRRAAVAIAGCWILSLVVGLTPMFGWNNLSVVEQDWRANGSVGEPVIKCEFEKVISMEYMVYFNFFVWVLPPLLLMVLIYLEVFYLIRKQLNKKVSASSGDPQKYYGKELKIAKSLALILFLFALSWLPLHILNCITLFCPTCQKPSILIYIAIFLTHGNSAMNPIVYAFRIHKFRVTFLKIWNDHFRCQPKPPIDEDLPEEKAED", "test": "Stimulation of [35S]GTPγS binding, rat cerebral cortical membranes containing the A1AR", "type": "biochemical", "method": "as §3"}, "[6]": {"biological_target": "T5, rat A1 receptors (Rattus norvegicus, UniProt P25099)", "T5 sequence (P25099 1-326)": "T4 sequence (P25099 1-326)", "test": "Radioligand binding at rat A1 adenosine receptors", "conditions": "for Ki: rat A1 receptors, read-out: K1 (nM), rA1", "method": "as §1"}, "[7]": {"biological_target": "T6, human A2B receptor (Homo sapiens, UniProt P29275)", "T6 sequence (P29275 1-332)": "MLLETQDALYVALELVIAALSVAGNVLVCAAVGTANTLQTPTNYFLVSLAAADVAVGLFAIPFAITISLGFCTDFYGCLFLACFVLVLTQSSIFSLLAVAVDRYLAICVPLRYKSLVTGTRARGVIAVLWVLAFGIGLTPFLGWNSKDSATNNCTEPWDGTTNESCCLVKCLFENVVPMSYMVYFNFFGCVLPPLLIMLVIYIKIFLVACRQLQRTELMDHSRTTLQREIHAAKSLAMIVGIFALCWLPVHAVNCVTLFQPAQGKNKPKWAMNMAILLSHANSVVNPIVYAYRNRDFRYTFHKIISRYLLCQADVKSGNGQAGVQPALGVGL", "test": "Radioligand binding at human A2B receptor using [3H]ZM 241,385", "conditions": "at 100 μM", "method": "The total volume of the reaction mixture was 125 μl. Bound and free ligands were separated by rapid filtration of the reaction mixture through Whatman GF/B glass filters. The filters were immediately washed with two 5 ml-portions of ice-cold 50 mM Tris.HCl buffer (pH 7.4). The radioactivity bound to the filters was determined in a Beckman gamma counter."}, "[8]": {"biological_target": "T7, cloned hA3AR (Homo sapiens, UniProt P0DMS8)", "T7 sequence (P0DMS8 1-318)": "T3 sequence (P0DMS8 1-318)", "test": "Stimulation of [35S]GTPγS binding, CHO cell membranes expressing cloned hA3AR", "conditions": "for EC50: stimulation of basal [35S]GTPγS binding, n = 3", "method": "as §2, §3, §4"}, "[9]": {"biological_target": "turkey erythrocyte P2Y1 receptors (Meleagris gallopavo, UniProt P49652)", "sequence (P49652 whole entry)": "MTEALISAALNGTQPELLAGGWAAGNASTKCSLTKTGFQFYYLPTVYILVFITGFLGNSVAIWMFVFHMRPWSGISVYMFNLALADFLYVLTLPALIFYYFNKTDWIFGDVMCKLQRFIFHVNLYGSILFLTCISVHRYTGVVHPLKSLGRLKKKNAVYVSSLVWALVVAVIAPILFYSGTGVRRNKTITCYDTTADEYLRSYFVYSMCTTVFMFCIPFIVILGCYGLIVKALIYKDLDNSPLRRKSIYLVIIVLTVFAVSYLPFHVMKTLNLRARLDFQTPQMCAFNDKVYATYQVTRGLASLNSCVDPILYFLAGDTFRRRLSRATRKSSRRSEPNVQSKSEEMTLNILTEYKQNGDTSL", "test": "PLC (inositol phosphate formation) assay in turkey erythrocyte membranes", "conditions": "for agonist or antagonist character at P2Y1 receptors: PLC assay; for inhibition at 100 µM: read-out: Antagonist Effect, % of maximal inhibition", "method": "Concentration-response curves were determined for each compound alone and in combination with 10 nM 2-MeSADP.\nP2Y1 receptor promoted stimulation of inositol phosphate formation by adenine nucleotide analogues was measured in turkey erythrocyte membranes as previously described. […] Erythrocyte ghosts were prepared by rapid lysis in hypotonic buffer (5 mM sodium phosphate, pH 7.4, 5 mM MgCl2, 1 mM EGTA) as described. […] Assays (200 μL final volume) contained 1 μM GTPγS and the indicated concentrations of nucleotide analogues. Ghosts were incubated at 30° C. for 5 min, and total [^3H]inositol phosphates were quantitated by anion exchange chromatography as previously described.^7,36\nAgonist potencies were calculated using a four-parameter logistic equation and the GraphPad software package (GraphPad, San Diego, Calif.)."}, "[10]": {"conditions": "IC50, antagonists, P2Y1 receptors"}, "[11]": {"conditions": "IC50, μM, inhibition of the effect elicited by 10 nM 2-MeSADP"}}, "note": "Counter-ions that a name gives are not always drawn. Like-named read-outs stand apart in the source and are kept apart here."}
{"compound": "OC[C@H]1O[C@@H](n2cnc3c(NCc4cccc(I)c4)nc(Cl)nc32)[C@H](O)[C@@H]1O", "note": "[Compound 9a, 2-chloro-N-6-(3iodobenzyl)adenosine]", "values": [{"measurement": "Ki", "setting": "[1]", "result": "1.41 ± 0.17", "unit": "nM"}]}
{"compound": "OCC1C(O)C(O)C2(n3cnc4c(NC5CCCC5)nc(Cl)nc43)CC12", "note": "(centres unmarked) [Compound 8c]", "values": [{"measurement": "cloned hA1AR % Maximal Stimulation", "setting": "[2]; [35S]GTPγS binding", "result": "97 ± 1", "unit": "%"}, {"measurement": "EC50", "setting": "[2]; read-out: cloned hA1AR EC50, stimulation of basal [35S]GTPγS binding, n = 3", "result": "31.2 ± 3.3", "unit": "nM"}, {"measurement": "Ki", "setting": "[3]", "result": "3390 ± 520", "unit": "nM"}, {"measurement": "Ki", "setting": "[4]", "result": "466 ± 58", "unit": "nM"}, {"measurement": "A1/A3", "setting": "[4]", "result": 0.019}, {"measurement": "EC50", "setting": "[5]", "result": "145 ± 35", "unit": "nM"}, {"measurement": "rA1AR % Maximal Stimulation", "setting": "[5]", "result": "96 ± 2", "unit": "%"}, {"measurement": "selectivity in binding to rat A1 vs. human A3 receptors", "setting": "[6]; binding", "result": 53, "unit": "fold"}, {"measurement": "Ki", "setting": "[6]", "result": "8.76 ± 0.81", "unit": "nM"}, {"measurement": "% displacement, hA2B", "setting": "[7]", "result": "27 ± 7", "unit": "% at 100 μM"}]}
{"compound": "Nc1ncnc2c1ncn2[C@@H]1C[C@H](CO)[C@@H](O)[C@H]1O", "note": "[Compound 5b, aristeromycin]", "values": [{"measurement": "Ki", "setting": "[1]", "result": 20000, "unit": "nM"}]}
{"compound": "OCC12CC1C(n1cnc3c(NC4CCCC4)ncnc31)C(O)C2O", "note": "[Compound 6c, (1′R,2R,3′R,4′R,1′aR)-2,3-(dihydroxy)-4-(hydroxymethyl)-1-(6-cyclopentylaminopurine-9-yl)bicyclo(3.1.0)hexane)]", "values": [{"measurement": "EC50", "setting": "[2]", "result": "21.5 ± 2.3", "unit": "nM"}, {"measurement": "agonist efficacy at human A1 receptors", "setting": "[2]; [35S]GTPγS binding", "result": "full agonist"}, {"measurement": "Emax", "setting": "[2]; read-out: cloned hA1AR % Maximal Stimulation", "result": "102 ± 1", "unit": "%"}, {"measurement": "Ki", "setting": "[3]", "result": "6800 ± 1800", "unit": "nM"}, {"measurement": "Ki", "setting": "[4]", "result": "170 ± 51", "unit": "nM"}, {"measurement": "A1/A3", "setting": "[4]", "result": 0.030}, {"measurement": "EC50", "setting": "[5]", "result": "100 ± 17", "unit": "nM"}, {"measurement": "Emax", "setting": "[5]; read-out: rA1AR % Maximal Stimulation", "result": "75 ± 6", "unit": "%"}, {"measurement": "cloned hA3AR % Stimulation at 10 μM", "setting": "[8]; [35S]GTPγS binding, at 10 μM", "result": "14 ± 2", "unit": "% at 10 μM"}, {"measurement": "EC50", "setting": "[8]; cloned hA3AR EC50 (nM)", "result": "> 10000", "unit": "nM"}, {"measurement": "Ki", "setting": "[6]", "result": "5.06 ± 0.51", "unit": "nM"}, {"measurement": "affinity at rat A1 receptors, fold less than for 6a", "setting": "[6]; versus 6a", "result": 3, "unit": "fold"}]}
{"compound": "CNc1ncnc2c1ncn2[C@H]1C[C@H](OP(=O)(O)O)C2(COP(=O)(O)O)C[C@H]12", "note": "(stereo partly drawn) [Compound 4b, (1R,2S,4S,5S)-1-[(phosphato)methyl]-4-(6-methylaminopurin-9-yl)bicyclo[[3.1.0.]-hexane-2-phosphatetetraammoniun salt]", "values": [{"measurement": "IC50", "setting": "[9]; [10]", "result": 0.276, "unit": "µM"}, {"measurement": "IC50", "setting": "[9]; [11]", "result": "0.157 ± 0.06", "unit": "µM"}, {"measurement": "agonist or antagonist character at P2Y1 receptors", "setting": "[9]", "result": "antagonists"}, {"measurement": "inhibition at 100 µM", "setting": "[9]", "result": 100, "unit": "%"}]}
{"compound": "CNc1ncnc2c1ncn2[C@H]1C[C@H](OP(=O)(O)O)[C@]2(COP(=O)(O)O)C[C@H]12", "note": "[Compound 4b, (1R,2S,4S,5S)-1-[(phosphato)methyl]-4-(6-methylaminopurin-9-yl)bicyclo[[3.1.0.]-hexane-2-phosphatetetraammoniun salt]", "values": [{"measurement": "Ki", "setting": "[3]", "result": "732 ± 207", "unit": "nM"}, {"measurement": "Ki", "setting": "[4]", "result": "2.24 ± 1.45", "unit": "nM"}, {"measurement": "Ki", "setting": "[6]", "result": "141 ± 22", "unit": "nM"}]}
{"compound": "CNc1nc(Cl)nc2c1ncn2[C@H]1C[C@H](OP(=O)(O)O)C2(COP(=O)(O)O)C[C@H]12", "note": "(some centres unmarked) [Compound 4c, (N)-Methanocarba-N^6-methyl-2-chloro-2′-deoxyadenosine-3′,5′-bis(diammonium phosphate)]", "values": [{"measurement": "IC50", "setting": "[9]; [10]", "result": 0.053, "unit": "µM"}, {"measurement": "IC50", "setting": "[9]; [11]", "result": "0.0516 ± 0.0008", "unit": "µM"}, {"measurement": "agonist or antagonist character at P2Y1 receptors", "setting": "[9]", "result": "antagonists"}, {"measurement": "inhibition at 100 µM", "setting": "[9]", "result": 100, "unit": "%"}]}
{"compound": "OC[C@H]1O[C@@H](n2cnc3c(NC4CCCC4)ncnc32)[C@H](O)[C@@H]1O", "note": "[Compound 6a, CPA, reference compound]", "values": [{"measurement": "Ki", "setting": "[4]", "result": "274 ± 20", "unit": "nM"}, {"measurement": "cloned hA3AR % Maximal Stimulation", "setting": "[8]; [35S]GTPγS binding", "result": 100, "unit": "%"}, {"measurement": "EC50", "setting": "[8]; read-out: cloned hA3AR EC50", "result": "7980 ± 60", "unit": "nM"}]}
